Consider four compounds from patent publication US20160374944A1, “COMPOSITIONS AND METHODS FOR TREATING AND PREVENTING CANCER BY TARGETING AND INHIBITING CANCER STEM CELLS” (priority 2011, published 2016).

Test [1] deals with Pancreatic CSCs. The test is described as follows: apoptosis. In kind it is cell-based, human. The method, then:
(A and B) Induction of apoptosis and activation of caspase-3/-7. Pancreatic CSCs were treated with rottlerin (0-2 μM) for 48 h, and apoptosis and caspase-3/-7 activity were measured by […] and colorometric assay, respectively. […] (C) Pancreatic CSCs were treated with rottlerin (0-1 μM) for 48 h, and the expression of Bcl-2, XIAP and Survivin was measured by qRT-PCR and normalized to GAPDH.
(A) Pancreatic CSCs were treated with SAHA (3 and 5 μM) and 5-Aza-dc (2 and 4 μM) and cell viability was measured at 48 h by staining with trypan blue using Vi-CELL analyzer (Beckman Counter). (B) Pancreatic CSCs were untreated (a) or treated with SAHA (b) or 5-Aza-dC (c) for 48 h, and apoptosis was measured by staining with annexin-PI using Accuri Flow Cytometer. (C) Caspase-3/7 activity was measured in pancreatic CSCs treated with SAHA (0.5 and 2 μM) or 5-Aza-dC (1 and 3 μM) for 25 h.
(A) Regulation of caspase-3/7 activity by EGCG. CSCs were treated with EGCG (0-60 μM) for 24 h, and caspase-3/7 activity was measured as per manufacturer's instructions. […] (B) Regulation of apoptosis by EGCG. CSCs were treated with EGCG (0-60 μM) for 48 h, and apoptosis was measured by TUNEL assay. […] (C) Regulation of apoptosis-related proteins. Pancreatic CSCs were treated with EGCG (0-60 μM) for 36 h. Real time PCR (q-RT-PCR) was performed to examine the expression of Bcl-2, survivin, XIAP, and GAPDH.
FIG. 42A and FIG. 42B show graphs showing quercetin synergizes with EGCG to inhibit self-renewal capacity, invasion, migration, and TCF/LEF and Gli transcriptional activities in pancreatic CSCs. (A) Effects of EGCG and quercetin on spheroid and colony formation. Upper Panel, uercetin synergizes with EGCG to inhibit spheroid's cell viability. CSCs were seeded in suspension and treated with EGCG (0-60 μM) with or without quercetin (20 μM) for 7 days. At the end of incubation period, all the spheroids were collected and resuspended. Cell viability was measured by trypan blue assay. […] Lower panel, uercetin synergizes with EGCG to inhibit colony formation. Pancreatic CSCs were seeded in soft agar and treated with various doses of EGCG (0-60 μM) with or without quercetin (20 μM) and incubated at […] for 21 days. At the end of incubation period, colonies were counted. […] (B) Effects of EGCG and quercetin on invasion and migration. Upper panel, Matrigel invasion assay. CSCs were plated onto the Matrigel-coated membrane in the top chamber of the transwell and treated with EGCG (0-60 μM) with or without quercetin (20 μM) for 48 hrs. Cells invaded to the lower chambered were fixed with methanol, stained with crystal violet and counted. […] Lower panel, Transwell migration assay. Pancreatic CSCs were plated in the top chamber of the transwell and treated with EGCG (0-60 μM) with or without quercetin (20 μM) for 48 hrs. Cells migrated to the lower chambered were fixed with methanol, stained with crystal violet and counted. […] (C) Quercetin synergizes with EGCG to induce apoptosis. CSCs were seeded in suspension and treated with EGCG (0-60 μM) with or without quercetin (20 μM) for 7 days. At the end of incubation period, all the spheroids were collected. Apoptosis was measured by TUNEL assay. […] (D) Effects of EGCG and quercetin on TCF/LEF and Gli transcriptional activities. Pancreatic CSCs were transduced with either lentivirus encoding TCF/LEF responsive GFP and luciferase genes or Gli-responsive GFP and luciferase genes. Transduced CSCs were treated with EGCG (40 μM) with or without quercetin (20 μM) for 48 hrs and the luciferase activity was measured.
Pancreatic CSCs were (a) untreated, (b) treated with SAHA, or (c) treated with 5-Aza-dC for 48 hours and apoptosis was measured by staining with annexin-PI using Accuri Flow Cytometer. The results of those studies are illustrated in FIG. 31B.

For test [2], the system named is Pancreatic CSCs. The test is described as follows: Matrigel invasion assay. In kind it is cell-based, human. The method, then:
(A and B) Pancreatic CSCs were treated with rottlerin (0-1 μM) for 24 h. The expression of Zeb-1 and Slug was measured by the qRT-PCR and normalized to GAPDH. […] (C) In vitro Matrigel invasion assay. CSCs were plated onto the Matrigel-coated membrane in the top chamber of the transwell and treated with rottlerin (0-2 μM) for 48 h. Cells invaded to the lower chamber were fixed with methanol, stained with crystal violet and photo micrographed.
(A) Pancreatic CSCs were treated with EGCG (0-60 μM) for 48 h. At the end of incubation period, the expression of Snail, ZEB1 and Slug was measured by q-RT-PCR. […] (B) Transwell migration assay. Pancreatic CSCs were plated in the top chamber of the transwell and treated with EGCG (0-60 μM) for 24 h. Cells migrated to the lower chambered were fixed with methanol, stained with crystal violet and counted. […] (C) Matrigel invasion assay. CSCs were plated onto the Matrigel-coated membrane in the top chamber of the transwell and treated with EGCG (0-60 μM) for 48 h. Cells invaded to the lower chambered were fixed with methanol, stained with crystal violet and counted. […] (D) Effects of EGCG on TCF-1/LEF activity. Pancreatic CSCs were transduced with TCF/LEF responsive GFP/firefly luciferase viral particles (pGreen Fire1-Gli with EF1, System Biosciences). Transduced CSCs were treated with EGCG (0-60) for 48 h and the GFP fluorescence was measured.
FIG. 42A and FIG. 42B show graphs showing quercetin synergizes with EGCG to inhibit self-renewal capacity, invasion, migration, and TCF/LEF and Gli transcriptional activities in pancreatic CSCs. (A) Effects of EGCG and quercetin on spheroid and colony formation. Upper Panel, uercetin synergizes with EGCG to inhibit spheroid's cell viability. CSCs were seeded in suspension and treated with EGCG (0-60 μM) with or without quercetin (20 μM) for 7 days. At the end of incubation period, all the spheroids were collected and resuspended. Cell viability was measured by trypan blue assay. […] Lower panel, uercetin synergizes with EGCG to inhibit colony formation. Pancreatic CSCs were seeded in soft agar and treated with various doses of EGCG (0-60 μM) with or without quercetin (20 μM) and incubated at […] for 21 days. At the end of incubation period, colonies were counted. […] (B) Effects of EGCG and quercetin on invasion and migration. Upper panel, Matrigel invasion assay. […] Cells invaded to the lower chambered were fixed with methanol, stained with crystal violet and counted. […] Cells migrated to the lower chambered were fixed with methanol, stained with crystal violet and counted. […] Apoptosis was measured by TUNEL assay. […] Transduced CSCs were treated with EGCG (40 μM) with or without quercetin (20 μM) for 48 hrs and the luciferase activity was measured.

For the next test, the system named is Brain CSCs. As to the kind of experiment: cell viability, trypan blue, Vi-CELL analyzer. As to conditions: 48 h. In kind it is cell-based. The method, then: Brain CSCs were treated with resveratrol (0-20 μM), curcumin (0-20 μM), honokiol (0-20 μM) and diallyl trisulphide (0-10 μM) for 3 days, and cell viability was measured by staining with trypan blue using Vi-CELL analyzer (Beckman Counter).
Brain CSCs were treated with sulforaphane (0-20 μM), rottlerin (0-1 μM), EGCG (0-40 μM) and embelin (0-5 μM) for 48 h, and cell viability was measured by staining with trypan blue using Vi-CELL analyzer (Beckman Counter).
Brain CSCs were treated with resveratrol (0-20 μM), curcumin (0-20 μM) honokiol (0-20 μM), and diallyl trisulphide (0-10 μM) for 3 days and cell viability was measured by staining with trypan blue using Vi-CELL analyzer. The results of those studies are illustrated in FIG. 23.
Brain CSCs were treated with sulforaphane (0-20 μM), rottlerin (0-1 μM), EGCG (0-40 μM), and embelin (0-5 μM) for 48 hours and cell viability was measured by staining with trypan blue using Vi-CELL analyzer. The results of those studies are illustrated in FIG. 24.

The mark [3] stands for this setting: EGCG 0-60 μM with or without quercetin 20 μM, 7 days, spheroids, TUNEL assay.
The mark [4] stands for this setting: EGCG 0-60 μM with or without quercetin 20 μM, 48 hrs.

Regarding `O=C(O[C@@H]1Cc2c(O)cc(O)cc2O[C@@H]1c1cc(O)c(O)c(O)c1)c1cc(O)c(O)c(O)c1` [EGCG, epigallocatechin gallate], the apoptosis result in the test with Pancreatic CSCs [1] (setting [3]) was “induced apoptosis”; in the test on Pancreatic CSCs [1] (EGCG 0-60 μM, 48 h, TUNEL assay), “induced caspase-3/7 activity and apoptosis in pancreatic CSCs in a dose-dependent manner”. Besides, the invasion result was “inhibited cell viability in spheroids, colony formation, migration and invasion by CSCs in a dose-dependent manner” in the test with Pancreatic CSCs [2] (setting [4]); “inhibited” with Pancreatic CSCs [2] (EGCG 0-60 μM, 48 h). The cell viability result in the test on Brain CSCs is listed as “inhibit cell viability”.
Take `O=c1c(O)c(-c2ccc(O)c(O)c2)oc2cc(O)cc(O)c12` [quercetin]: the apoptosis entry in the test on Pancreatic CSCs [1] (setting [3]) is given as “induced apoptosis”. In addition, the invasion entry in the test with Pancreatic CSCs [2] (setting [4]) is on record as “effective alone”.
As for `CC(=O)c1c(O)c(C)c(O)c(Cc2c(O)c3c(c(C(=O)/C=C/c4ccccc4)c2O)OC(C)(C)C=C3)c1O` [rottlerin], the apoptosis entry with Pancreatic CSCs [1] (rottlerin 0-2 μM, 48 h) is given as “induced”. Also, in the test on Pancreatic CSCs [2] (rottlerin 0-2 μM, 48 h, Matrigel), the in vitro invasion result is on record as “inhibited the in vitro invasion”. For the same compound, in the test on Brain CSCs, the cell viability result was “inhibit cell viability”.
As to `C[S+]([O-])CCCCN=C=S` (centres unmarked) [sulforaphane], the cell viability result with Brain CSCs was “inhibit cell viability”.
